# Source: patent EP0046734A2, “Aminohydroxyphenyl derivatives of cephalosporins, process for their preparation and pharmaceutical compositions containing them” (CIBA-GEIGY AG, priority 1980, dated 1982)
# Key:
# [1] = tested on: Neisseria meningitidis; experiment: Antibiotic activity in vitro, agar dilution method in DST agar (MIC); type: cell-based
# From the text: (§1) A. Die antibiotische Aktivität der Testverbindungen in vitro wurde durch die Agarverdünnungsmethode nach Ericsson, H.M. und Sherris, S.C., 1971, Acta Path. Microb. Scand. Section B, Suppl. No. 217, Bd. 1-90, in DST Agar ermittelt. Die gefundenen, das Wachstum der Testorganismen noch hemmenden Minimalkonzentrationen (MIC = minimum inhibiting concentrations) werden in Mikrogramm pro Milliliter (µg/ml) für die geprüften Verbindungen in der Tabelle 1 angegeben.
# [2] = tested on: Streptococcus pyogenes Aronson; experiment: as above; type: cell-based
# From the text: as §1
# [3] = tested on: Escherichia coli DC2; experiment: as above; type: cell-based
# From the text: as §1
# [4] = tested on: Klebsiella pneumoniae 372; experiment: as above; type: cell-based
# From the text: as §1
# [5] = tested on: Proteus mirabilis 774; experiment: Chemotherapeutic activity in vivo against systemic infection in mice (ED50); set-up: species or system weiblichen SPF, MF2 Mäusen; details: po
# From the text: (§2) B. Die chemotherapeutsche Wirksamkeit in vivo gegen systemische Infektionen in weiblichen SPF, MF2 Mäusen wurde nach der Methode von Zak, 0., et al., 1979, Drugs Exptl. Clin. Res. 5, 45.59, ermittelt. Die gefundenen ED50 -Werte in Milligramm Substanz pro Kilogramm Maus (mg/kg) gegen eine Anzahl von Mikroorganismen werden für die oral (p.o.) oder subcutan (s.c.) applizierten Testverbindungen in der Tabelle 2 angegeben.
# [6] = tested on: Klebsiella pneumoniae 327; experiment: as above; set-up: species or system weiblichen SPF, MF2 Mäusen; details: po
# From the text: as §2
# [7] = tested on: Escherichia coli 205; experiment: as above; set-up: species or system weiblichen SPF, MF2 Mäusen
# From the text: as §2
# [8] = tested on: Staphylococcus aureus 10 B; experiment: as above; set-up: species or system weiblichen SPF, MF2 Mäusen
# From the text: as §2
Compound,MIC [1],MIC [2],MIC [3],MIC [4],ED50 [5],ED50 [6],ED50 ([7]; po),ED50 ([7]; sc),ED50 ([8]; po),ED50 ([8]; sc)
"CS(=O)(=O)Nc1cc([C@@H](N)C(=O)N[C@@H]2C(=O)N3C(C(=O)O)=C(Cl)CS[C@H]23)ccc1O [Verbindung 3, 7ß-[D-2-Amino-2-(3-methylsulfonylamino-4-hydroxyphenyl)-acetylamino]-3-chlor-ceph-3-em-4-carbonsäure]",0.5 µg/mL,0.5 µg/mL,0.5 µg/mL,1 µg/mL,4 mg/kg,3 mg/kg,2 mg/kg,3 mg/kg,4 mg/kg,10 mg/kg
"CS(=O)(=O)Nc1cc([C@@H](N)C(=O)N[C@@H]2C(=O)N3C(C(=O)O)=CCS[C@H]23)ccc1O [Verbindung 2, 7ß-[D-2-Amino-2-(3-methylsulfQnylamino-4-hydroxyphenyl)-acetylamino]-ceph-3-em-4-carbonsäure]",8 µg/mL,4 µg/mL,4 µg/mL,4 µg/mL,22 mg/kg,3 mg/kg,2.2 mg/kg,–,1.5 mg/kg,3 mg/kg
"COC1=C(C(=O)O)N2C(=O)[C@@H](NC(=O)[C@H](N)c3ccc(O)c(NS(C)(=O)=O)c3)[C@H]2SC1 [Verbindung 1, 7ß-[D-2-Amino-2-(3-methylsulfonylamino-4-hydroxyphenyl)-acetylamino]-3-methoxy-ceph-3-em-4-carbonsäure]",1 µg/mL,0.1 µg/mL,0.5 µg/mL,2 µg/mL,22 mg/kg,7 mg/kg,5 mg/kg,6 mg/kg,1.5 mg/kg,3 mg/kg
"CCS(=O)(=O)Nc1cc([C@@H](N)C(=O)N[C@@H]2C(=O)N3C(C(=O)O)=C(Cl)CS[C@H]23)ccc1O [Verbindung 5, 7ß-[D-2-Amino-2-(3-äthylsulfonylamino-4-hydroxyphenyl)-acetylamino]-3-chlor-ceph-3-em-4-carbonsäure]",0.1 µg/mL,0.5 µg/mL,2 µg/mL,1 µg/mL,30 mg/kg,1.4 mg/kg,4.5 mg/kg,3 mg/kg,7 mg/kg,10 mg/kg
"CCS(=O)(=O)Nc1cc([C@@H](N)C(=O)N[C@@H]2C(=O)N3C(C(=O)O)=CCS[C@H]23)ccc1O [Verbindung 4, 7ß-[D-2-Amino-2-(3-äthylsulfonylamino-4-hydroxyphenyl)-acetylamino]-ceph-3-em-4-carbonsäure]",4 µg/mL,1 µg/mL,4 µg/mL,4 µg/mL,30 mg/kg,1.4 mg/kg,4.5 mg/kg,3 mg/kg,1.5 mg/kg,3 mg/kg
"CCS(=O)(=O)Nc1cc([C@@H](N)C(=O)N[C@@H]2C(=O)N3C(C(=O)O)=C(OC)CS[C@H]23)ccc1O [Verbindung 6, 7ß-[D-2-Amino-2-(3-äthylsulfonylamino-4-hydroxyphenyl)-acetylamino]-3-methoxy-ceph-3-em-4-carbonsäure]",0.1 µg/mL,0.5 µg/mL,2 µg/mL,16 µg/mL,30 mg/kg,10 mg/kg,6 mg/kg,8 mg/kg,6 mg/kg,15 mg/kg
